Test results published in US11065239B2, “Use of EZH2 inhibitor combined with BTK inhibitor in preparing drug for treating tumor” (Jiangsu Hengrui Medicine Co., Ltd., priority 2017, dated 2021).

Experiments:
[1] = system: human B cell lymphoma SU-DHL-4 cells; experiment: Proliferation of SU-DHL-4 cells in vitro (MTT); format: cell-based; conditions: single compound, 72 hours
Experimental: (§1) Cell line: human B cell lymphoma SU-DHL-4 and SU-DHL-6 cells (purchased from ATCC), cultured in vitro in RPMI 1640 medium containing 10% fetal bovine serum (FBS).
(§2) Each of the test compounds was all formulated with DMSO into a 10 mM stock solution, which was formulated into the desired concentration with serum-free medium when used.
(§3) A certain number of cells in logarithmic growth phase was inoculated in a 96-well culture plate. After 24 hours, the cells were added with the test compounds in different concentrations (1-40000 nM), and incubated for 72 hours. Each well was added with the MTT working solution. After 4 hours, the cells were lysed with the triple solution (10% SDS, 5% isobutanol, 0.012 mol/L HCl) at 37° C. overnight, and the OD value was measured at a wavelength of 570 nm by a microplate reader. […]
(§4) The half effective concentration IC50 was calculated using the non-linear regression method according to the inhibition rate of each concentration.
(§5) In the combined administration, the concentration ratio of compound A to compound B was 1:2 (for SU-DHL-4) and 1:4 (for SU-DHL-6). The combination index (CI) was calculated with Calcu-Syn program using the median effect method to evaluate the relationship between the two compounds during the combined administration (CI<1 refers to synergistic effect, CI=1 refers to additive effect, CI>1 refers to antagonistic effect).

[2] = system: human B cell lymphoma SU-DHL-6 cells; experiment: Proliferation of SU-DHL-6 cells in vitro (MTT); format: cell-based; conditions: single compound, 72 hours
Experimental: as §1, §2, §3, §4, §5

[3] = system: human B cell lymphoma DOHH-2 cells; experiment: Proliferation of DOHH-2 cells in vitro (MTT); format: cell-based; conditions: single compound, 72 hours
Experimental: Cell line: human B cell lymphoma DOHH-2 cells (purchased from DSMZ), cultured in vitro in RPMI 1640 medium containing 10% fetal bovine serum (FBS).
as §2
A certain number of cells in logarithmic growth phase was inoculated in a 96-well culture plate. After 24 hours, the cells were added with the test compounds in different concentrations (1-100000 nM), and incubated for 72 hours. Each well was added with the MTT working solution. After 4 hours, the cells were lysed with the triple solution, and the OD value was measured at a wavelength of 570 nm by a microplate reader. […]
The half effective concentration IC50 was calculated using the non-linear regression method according to the inhibition, rate of each concentration.
In the combined administration, the concentration ratio of compound A to compound B was 1:10. The combination index (CI) was calculated with Calcu-Syn program using the median effect method to evaluate the relationship between the two compounds during the combined administration (CI<1 refers to synergistic effect, CI=1 refers to additive effect, CI>1 refers to antagonistic effect).

[4] = system: human B cell lymphoma SU-DHL-4 cells subcutaneous transplantation tumor; experiment: Subcutaneous transplantation tumor in mice inoculated with SU-DHL-4 cells; format: in vivo, SCID.BG mice; conditions: SU-DHL-4 xenograft, PO; for Mean tumor volume D 0: baseline at first administration; for Mean tumor volume D 0 / % T/C D 14 / % tumor inhibition rate D 14 / Mean tumor volume D 14 / Complete regression (number of mice) / Partial regression (number of mice): 50 mg/kg each, BID, D 0-13; for Complete regression (number of mice) / Partial regression (number of mice): 8 mice per group; for tumor completely regressed, fraction of mice / tumor partially regressed, fraction of mice: 50 mg/kg; for tumor partially regressed, fraction of mice: text says QD×14
Excerpt: Test animals: SCID.BG mice, 5-6 weeks old, female, purchased from Shanghai Lingchang Biotechnology Co., Ltd., with laboratory animals use license No.: SCXK (Shanghai) 2013-0018 and animal certificate No.: 2013001820833, feeding condition: SPF grade.
The test compounds were all formulated with 0.2% Tween 80+0.5% CMC solution, and diluted to the corresponding concentration.
(1) The mice were subcutaneously inoculated with SU-DHL-4 cells (B cell lymphoma SU-DHL-4 cells were purchased from ATCC). When the tumors grown to 100-150 mm^3, the animals were grouped according to the tumor volume (D0).
(§6) (2) Observation and recording: the tumor volume was measured 2 to 3 times per week, the mice were weighed, and the data were recorded.
(§7) The endpoint is mainly dependent on whether the tumor growth is delayed or whether the mouse is cured. The tumor volume (in mm^3) was measured twice a week with caliper in two dimensions.
The tumor volume (V) is calculated as: V=0.5×a×b^2, wherein a and b represent length and width, respectively; T/C (%)=(T−T0)/(C−C0)×100, wherein T and C represent the tumor volume at the end of the experiment; T0 and C0 represent the tumor volume at the beginning of the experiment. The T/C value (percentage) is indicative of anti-tumor efficacy. Tumor growth inhibition rate (TGI) (%)=100−T/C (%);
When the tumor regressed, the tumor growth inhibition rate (TGI) (%)=100−(T−T0)/T0×100
If the tumor volume is smaller than the initial volume, i.e. T<T0 or C<C0, it is defined as partial regression (PR); if the tumor completely disappears, it is defined as complete regression (CR).
(§8) (4) Data analysis: the statistics were summarized, including mean and standard error of mean (SEM), statistical analysis of differences in tumor volume between groups, and analysis of data obtained by drug interaction that was carried out at the optimal treatment time point after the last administration (Day 14 after grouping). One-way variance analysis was performed to compare tumor volume and tumor weight between groups. When a […] F-statistic was obtained (p<0.001, treatment variance vs. error variance), single-tailed Mann-Whitney statistical analysis was performed to compare tumor volumes of the two groups, and P<0.05 was considered as statistically significant.

[5] = system: human follicular lymphoma DOHH-2 cells subcutaneous transplantation tumor; experiment: Subcutaneous transplantation tumor in nude mice inoculated with DOHH-2 cells; format: in vivo, BALB/cA-nude nude mice; conditions: DOHH-2 xenograft, 50 mg/kg each, PO, BID, D 0-20; for Mean tumor volume D 0: baseline at first administration
Excerpt: Test animals: BALB/cA-nude nude mice, 5-6 weeks old, female, purchased from Shanghai Lingchang Biotechnology Co., Ltd., with laboratory animals use license No.: SCXK (Shanghai) 2013-0018 and animal certificate No.: 2013001818958, feeding condition: SPF grade.
The test compounds were all formulated with 0.2% Tween 80+0.5% CMC solutions, and diluted to the corresponding concentration.
(1) The nude mice were subcutaneously inoculated with lymphoma DOHH-2 cells. When the tumors grown to 100-200 mm^3, the animals were grouped randomly (D0).
as §6, §7
The tumor volume (V) is calculated as: V=0.5×a×b^2, wherein a and b represent length and width, respectively; T/C (%)=(T−T0)/(C−C0)×100, wherein T and C represent the tumor volume at the end of the experiment; T0 and C0 represent the tumor volume at the beginning of the experiment. The T/C value (percentage) is indicative of anti-tumor efficacy.
as §8, with “21” for “14”, “the comparison between groups” for “single-tailed Mann-Whitney statistical analysis”, “using Games-Howell test. All data were analyzed using SPSS17.0,” for “to compare tumor volumes of the two groups,”

CCc1c(N(CC)C2CCOCC2)cc2oc(CN3CCCCC3)cc2c1C(=O)NCc1c(C)cc(C)[nH]c1=O [Compound B, N-((4,6-dimethyl-2-oxo-1,2-dihydropyridin-3-yl)methyl)-5-ethyl-6-(ethyl(tetrahydro-2H-pyran-4-yl)amino)-2-(piperidin-1-ylmethyl)benzofuran-4-carboxamide]
IC50 [1]: 2170 nM | IC50 [2]: 4660 nM | IC50 [3]: 5920 nM | Mean tumor volume D 0 [4]: 126.6 mm^3 | % T/C D 14 [4]: 40% | % tumor inhibition rate D 14 [4]: 60% | Mean tumor volume D 14 [4]: 384.7 mm^3 | Complete regression (number of mice) [4]: 1 | Partial regression (number of mice) [4]: 2 | tumor completely regressed, fraction of mice [4]: 1/8 | tumor partially regressed, fraction of mice [4]: 2/8 | Mean tumor volume D 0 [5]: 107.7 mm^3 | % T/C D 21 [5]: 65% | % tumor inhibition rate D 21 [5]: 35% | Mean tumor volume D 21 [5]: 914.1 mm^3

CC#CC(=O)N1CC[C@@H](n2cc(-c3ccc(Oc4c(F)cccc4F)cc3)c3c(N)n[nH]c(=O)c32)C1 [Compound A]
IC50 [1]: 1060 nM | IC50 [2]: 711 nM | IC50 [3]: 325 nM | Mean tumor volume D 0 [4]: 122.4 mm^3 | % T/C D 14 [4]: 24% | % tumor inhibition rate D 14 [4]: 76% | Mean tumor volume D 14 [4]: 276.9 mm^3 | Complete regression (number of mice) [4]: 1 | Partial regression (number of mice) [4]: 1 | tumor completely regressed, fraction of mice [4]: 1/8 | tumor partially regressed, fraction of mice [4]: 1/8 | Mean tumor volume D 0 [5]: 111.1 mm^3 | % T/C D 21 [5]: 51% | % tumor inhibition rate D 21 [5]: 49% | Mean tumor volume D 21 [5]: 742.0 mm^3
